A short description of this data set: Method for measuring solubility of metal salt. Particulars: 100 g water at pH 7, 20° C., shaken 1 hour. Here is the method:
In a flask are placed 100 g of water at pH 7 and 2 g of a metal salt being tested. The flask is tightly closed and shaken in a thermostat at 20° C. for 1 hour. The contents of the flask are filtered to collect the undissolved metal salt, which is dried and weighed. The weight (g) of the undissolved metal salt is subtracted from the original weight (2 g) to obtain the solubility of the metal salt.

In patent US20240245079A1, “METHOD FOR MANUFACTURING HEATED FOOD” (Nisshin Seifun Welna Inc., priority 2021, published 2024) one finds Solubility data, which are given here for one compound.

Regarding `[O]=[Mg]` [Magnesium oxide], the Solubility is 0.0086 g/100 g water.
